Assays:
[1] = tested on: LPS-stimulated BV2 microglial cells; test: NO production (nitrite, Griess reaction) in LPS-stimulated BV2 microglial cells; format: cell-based, murine; details: for Effect on alteration of NO production: 80.0 μM; for IC50: Mus musculus, BV-2, mean ± SD of triplicate experiments, read-out: NO Inhibitory Effects, BV2 Cells (IC50)
Text: (§1) LPS is a major cell wall component of Gram-negative bacteria. LPS is an intensive stimulator of macrophages and microglia, and thus treatment of these cells with LPS is frequently employed in research related to the inflammatory phenomenon. In the current study, all the isolated compounds (1–5) were investigated for their anti-neuroinflammatory and anti-inflammatory effects by examining their effects on the overproduction of NO and PGE2 in LPS-stimulated BV2 microglia and RAW264.7 macrophage cells. LPS stimulation increased the production of NO and PGE2 in both cell lines. […] Thus, this compound was selected to further examine the anti-inflammatory effect and to reveal its underlying mechanisms. […] Moreover, compound 2 attenuated the protein expression of iNOS and COX-2 in a dose-dependent manner in LPS-stimulated BV2 cells (Figure 3A).
(§2) RAW264.7 and BV2 cells were maintained at 5 × 10^5 cells/mL in Dulbecco’s modified Eagle’s medium (DMEM) containing 10% fetal bovine serum (FBS), penicillin G (100 U/mL), streptomycin (100 mg/L), and L-glutamine (2 mM) and incubated at 37 °C in a humidified atmosphere containing 5% CO2. DMEM, FBS, and other tissue culture reagents were purchased from Gibco BRL Co. Cell viability was evaluated by the MTT assay as described in our previous report.
To determine the nitrite concentration in the medium as an indicator of NO production, the Griess reaction was carried out as described in our previous report.

[2] = tested on: LPS-stimulated BV2 microglial cells; test: PGE2 production in LPS-stimulated BV2 cells; format: cell-based, murine; details: Mus musculus, BV-2, mean ± SD of triplicate experiments, read-out: PGE2 Inhibitory Effects, BV2 Cells (IC50)
Text: as §1, §2
The level of PGE2 present in each sample was determined using a commercially available kit from R&D Systems (Minneapolis, MN, USA); the details of this assay were described previously. Three independent assays were performed according to the manufacturer’s instructions.

[3] = molecular target: T1, PTP1B (human, recombinant) (Homo sapiens, UniProt P18031); test: PTP1B enzyme assay with pNPP substrate; format: biochemical; details: for inhibition at 50 µM: 50 μM compound, read-out: Inhibitory Effects on PTP1B, inhibition percentage at 50 μM; for inhibition at 50 µM / IC50: pNPP substrate; for Mode of PTP1B inhibition (Lineweaver–Burk plot): pNPP 0.25-2.0 mM, Km and Vmax analysis; for IC50: mean ± SD of triplicate experiments, read-out: Inhibitory Effects on PTP1B (IC50)
T1 construct: purchased BIOMOL Research Laboratories, Inc
T1 sequence (P18031 1-435): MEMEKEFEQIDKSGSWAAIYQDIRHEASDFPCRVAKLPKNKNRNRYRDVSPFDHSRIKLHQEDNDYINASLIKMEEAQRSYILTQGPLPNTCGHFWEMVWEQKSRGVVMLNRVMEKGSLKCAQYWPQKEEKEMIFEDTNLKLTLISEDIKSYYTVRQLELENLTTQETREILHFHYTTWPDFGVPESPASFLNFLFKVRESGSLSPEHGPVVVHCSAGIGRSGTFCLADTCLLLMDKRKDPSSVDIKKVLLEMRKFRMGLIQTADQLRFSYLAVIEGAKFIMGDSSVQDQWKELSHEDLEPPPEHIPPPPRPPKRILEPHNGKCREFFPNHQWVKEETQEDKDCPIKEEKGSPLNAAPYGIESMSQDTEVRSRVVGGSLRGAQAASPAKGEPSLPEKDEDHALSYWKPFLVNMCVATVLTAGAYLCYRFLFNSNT
Method: In addition to the investigation of the anti-inflammatory and anti-neuroinflammatory effects of the isolated metabolites in cellular models, this study attempted to assess the inhibitory effect of the isolated compounds against PTP1B activity.
PTP1B (human, recombinant) used in the current study was purchased from BIOMOL Research Laboratories, Inc. PTP1B enzyme activity was determined using 2 mM of pNPP as a substrate in 50 mM citrate buffer solution (pH 6.0, 0.1 M NaCl, 1 mM EDTA, and 1 mM dithiothreitol). The reaction mixture was incubated at 30 °C for 30 min, and the reaction was terminated by the addition of 1 N NaOH. The amount of p-nitrophenol produced by the enzyme was estimated by measuring the increase in absorbance at 405 nm. The nonenzymatic hydrolysis of 2 mM pNPP was corrected by measuring the increase in absorbance at 405 nm in the absence of PTP1B [31]. The kinetic analysis involved the following: the assays were performed using a reaction mixture that contained different concentrations of pNPP (0.25 mM, 0.5 mM, 1.0 mM, and 2.0 mM) as a PTP1B substrate in the absence or presence of compounds 4 and 5. The Michaelis–Menten constant (Km) and maximum velocity (Vmax) of PTP1B were determined by the Lineweaver–Burk plot using the GraphPad Prism® 4 program (GraphPad Software Inc., San Diego, CA, USA).

[4] = tested on: IL-1β, TNF-α, IL-6, IL-12 mRNA in LPS-stimulated BV2 cells; test: qRT-PCR of pro-inflammatory cytokine mRNA in LPS-stimulated BV2 cells; format: cell-based, murine; details: 3 h pre-treatment, LPS 1 µg/mL for 12 h
[5] = tested on: iNOS and COX-2 protein expression in LPS-stimulated BV2 cells; test: Western blot of iNOS and COX-2 in LPS-stimulated BV2 cells; format: cell-based, murine; details: 1.0, 2.0, 4.0 μM, dose-dependent, LPS 1 μg/mL 24 h
Method: Cells were pre-treated with compound 2 (1.0, 2.0, and 4.0 μM) for 3 h and stimulated with LPS (1 μg/mL) for 24 h. The representative blots of three independent analyses for iNOS and COX-2 expression are shown.
(§3) Western blot analysis was carried out according to our previous report. Briefly, cells were harvested by centrifugation at 200 g for 3 min, followed by a washing step with RIPA lysis buffer (25 mM Tris-HCl buffer (pH 7.6), 150 mM NaCl, 1% NP-40, 1% sodium deoxycholate, and 0.1% SDS). Primary antibodies (COX-2: sc-1745; iNOS: sc-650; IкB-α: sc-371; p-IкB-α: sc-8404; p50: sc-7178; and p65: sc-8008) were purchased from Santa Cruz Biotechnology, and secondary antibodies (mouse: ap124p; goat: ap106p; and rabbit: ap132p) were purchased from Millipore.

[6] = tested on: NF-κB pathway in LPS-stimulated BV2 cells; test: NF-κB pathway activation (western blot, DNA-binding ELISA) in LPS-stimulated BV2 cells; format: cell-based, murine
Method: After pre-treatment with compound 2 (1.0, 2.0, and 4.0 μM) for 3 h, the cells were stimulated with LPS for 1 h. (A–F) Proteins were obtained, and specific anti-IκB-α, anti-p- IκB-α, anti-p65, and anti-p50 antibodies were employed for western blot analysis. Representative blots of three independent experiments are shown. Band intensity was quantified by densitometry and normalized to β-actin for the cytoplasmic fraction and to proliferating cell nuclear antigen (PCNA) for the nuclear fraction. (G, H) NF-κB binding activity in the nuclear fraction was determined using an NF-κB ELISA kit by Active Motif (* p < 0.05; ** p < 0.01; *** p < 0.001) and then compared to that of the LPS-treated group.
Western blot analysis was carried out according to our previous report. Briefly, cells were harvested by centrifugation at 200 g for 3 min, followed by a washing step with RIPA lysis buffer (25 mM Tris-HCl buffer (pH 7.6), 150 mM NaCl, 1% NP-40, 1% sodium deoxycholate, and 0.1% SDS). […]
The DNA-binding activity of NF-κB in the nuclear extracts was measured using the TransAM® kit (Active Motif, Carlsbad, CA, USA); three independent assays for each sample were conducted according to the manufacturer’s instructions.

[7] = tested on: MAPK pathways (ERK, JNK, p38 MAPK) in LPS-stimulated BV2 cells; test: MAPK phosphorylation (western blot) in LPS-stimulated BV2 cells; format: cell-based, murine; details: 1.0, 2.0, 4.0 μM pre-treatment 3 h, LPS 1 h
Method: After pre-treatment with compound 2 (1.0, 2.0, and 4.0 μM) for 3 h, the cells were stimulated with LPS for 1 h. Western blot analysis was performed to determine the phosphorylated levels of extracellular signal-regulated kinases (ERK) (p-ERK), c-Jun N-terminal kinases (JNK) (p-JNK), and p38 MAPK (p-p38 MAPK). Representative blots of three independent experiments are shown. Band intensity was quantified by densitometry and normalized to β-actin. * p < 0.05; *** p < 0.001 as compared to the LPS-treated group.
as §3

[8] = tested on: PC12 pheochromocytoma cells; parameters: method as in doi:10.1002/1099-0690(200105)2001:10<1963::AID-EJOC1963>3.0.CO; details: cited from earlier work
[9] = tested on: endothelin binding; details: cited from earlier work
[10] = tested on: HIV-1-integrase; details: cited from earlier work

SMILES	Effect on alteration of NO production [1]	IC50 [1] [µM]	IC50 [2] [µM]	inhibition at 50 µM [3] [%]	mRNA over-expression of IL-1β, TNF-α, IL-6 and IL-12 [4]	Protein expression of iNOS and COX-2 [5]	Activation of the NF-κB pathway (IκB-α phosphorylation/degradation, p50/p65 nuclear translocation) ([6]; 1.0, 2.0, 4.0 μM pre-treatment 3 h, LPS 1 h)	DNA binding activity of the p65 subunit ([6]; nuclear fraction, NF-κB ELISA kit)	Increased phosphorylation levels of ERK and JNK MAPKs [7]	LPS-induced p38 MAPK phosphorylation [7]	Neurite outgrowth in PC12 pheochromocytoma cells [8]	Endothelin binding inhibition [9]	Mode of PTP1B inhibition (Lineweaver–Burk plot) [3]	IC50 [3] [µM]	HIV-1-integrase inhibition [10]
COc1cc2c(cc1O)OCC1=C2O[C@@H](C)CC1=O [Compound 1, 9-O-methylneuchromenin]	did not significantly affect	> 80	> 80	45.7	–	–	–	–	–	–	–	–	–	–	–
C[C@H]1CC(=O)C2=C(O1)c1cc(O)c(O)cc1OC2 [Compound 2, neuchromenin]	–	2.7 ± 0.1	3.2 ± 0.2	37.8	effectively decreased	attenuated	suppressed	decreased	unchanged	inhibited	induced neurite outgrowth	–	–	–	–
COC(=O)c1cc(O)cc(OC)c1Oc1cc(C)cc(O)c1C(=O)O [Compound 3, asterric acid]	did not significantly affect	> 80	> 80	13.7	–	–	–	–	–	–	–	endothelin binding inhibitor	–	–	–
CC1=Cc2oc3cc(O)c(O)cc3c(=O)c2CO1 [Compound 4, myxotrichin C]	–	28.1 ± 1.4	25.2 ± 1.3	–	–	–	–	–	–	–	–	–	noncompetitive inhibitor	19.2 ± 1	–
C/C=C/c1cc(=O)c(C(=O)c2c(OC)cc(OC)cc2C(=O)OC)co1 [Compound 5, deoxyfunicone]	–	10.6 ± 0.5	32.3 ± 1.6	–	–	–	–	–	–	–	–	–	competitive	24.3 ± 1.2	HIV-1-integrase inhibitor
